US12428406B2 (PMV Pharmaceuticals, Inc., priority 2019, dated 2025)

Molecular target: T1, p53 Y220C (Homo sapiens, UniProt P04637, Y220C)
T1 construct: The recombinant protein was a truncation mutant containing only amino acids 94-312 of p53; made in house; host or cells: E. coli
Assay: In vitro DNA binding activity assay (HTRF / TR-FRET): stabilization of p53 Y220C and increase of its DNA binding activity
Assay type: biochemical
Details: recombinant His-tagged p53 Y220C DNA binding domain (aa 94-312), biotin-labeled consensus DNA, incubated at 27° C. or 29° C. for 60 min
Procedure, shortened: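 Compounds from 4.5 mM DMSO stocks, 3-fold serial dilutions; room-temperature incubations of 15 and 20 min. SC150 = concentration raising DNA binding by 50% over no-compound control.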

T1 sequence (P04637 94-312, change not shown): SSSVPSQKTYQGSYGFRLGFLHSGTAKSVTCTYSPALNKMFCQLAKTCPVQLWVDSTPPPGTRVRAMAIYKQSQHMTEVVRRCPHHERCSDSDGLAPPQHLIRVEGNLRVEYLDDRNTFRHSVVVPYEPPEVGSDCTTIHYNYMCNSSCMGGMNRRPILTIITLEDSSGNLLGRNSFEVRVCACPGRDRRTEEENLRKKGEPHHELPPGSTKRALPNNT

SMILES	SC150 (concentration of the compound required to increase the DNA binding activity by 50%)
CCOc1cc(S(C)(=O)=O)ccc1NCC#Cc1cc2c(N[C@H]3CC[C@H](N(C)C)CC3)cccc2n1CC(F)(F)F [Compound 95A, (1R,4R)—N^4-(2-{3-[(2-ethoxy-4-methanesulfonylphenyl)amino]prop-1-yn-1-yl}-1-(2,2,2-trifluoroethyl)-1H-indol-4-yl)-N^1,N^1-dimethylcyclohexane-1,4-diamine]	+ (+ = 0 μM ≤ SC150 < 0.05 μM)
COc1cc(S(C)(=O)=O)ccc1NCC#Cc1cc2c(N[C@H]3CCN(C(=O)CN)C[C@H]3F)cccc2n1CC(F)(F)F [Compound 892A]	+ (+ = 0 μM ≤ SC150 < 0.05 μM)
COc1cc(S(C)(=O)=O)ccc1NCC#Cc1cc2c(NC3CCN(C[C@H](O)CO)CC3)cccc2n1CC(F)(F)F [Compound 558A, (2S)-3-{4-[(2-{3-[(4-methanesulfonyl-2-methoxyphenyl)amino]prop-1-yn-1-yl}-1-(2,2,2-trifluoroethyl)-1H-indol-4-yl)amino]piperidin-1-yl}propane-1,2-diol]	+ (+ = 0 μM ≤ SC150 < 0.05 μM)
COc1cc(S(N)(=O)=O)ccc1NCC#Cc1cc2c(NC3CCN(C(=O)C(C)O)CC3)cccc2n1CC(F)(F)F (centres unmarked) [Compound 745A]	+ (+ = 0 μM ≤ SC150 < 0.05 μM)
COc1cc(S(C)(=O)=O)ccc1NCC#Cc1cc2c(N[C@H]3CCN(C[C@@H](C)O)C[C@H]3F)cccc2n1CC(F)(F)F [Compound 894A, 1-[(3R,4S)-3-fluoro-4-[(2-{3-[(4-methanesulfonyl-2-methoxyphenyl)amino]prop-1-yn-1-yl}-1-(2,2,2-trifluoroethyl)-1H-indol-4-yl)amino]piperidin-1-yl]propan-2-ol]	+ (+ = 0 μM ≤ SC150 < 0.05 μM)
COc1cc(S(C)(=O)=O)ccc1NCC#Cc1cc2c(N[C@@H]3CCN(C)C[C@@H]3F)cccc2n1CC(F)(F)F [Compound 772A, N-[(3S,4R)-3-fluoro-1-methylpiperidin-4-yl]-2-{3-[(4-methanesulfonyl-2-methoxyphenyl)amino]prop-1-yn-1-yl}-1-(2,2,2-trifluoroethyl)-1H-indol-4-amine]	+ (+ = 0 μM ≤ SC150 < 0.05 μM)
CCNC(=O)c1ccc(NCC#Cc2cc3c(N[C@@H]4CCNC[C@@H]4F)cccc3n2CC(F)(F)F)c(OC)c1 [Compound 1062A, N-ethyl-4-{[3-(4-{[(3S,4R)-3-fluoropiperidin-4-yl]amino}-1-(2,2,2-trifluoroethyl)-1H-indol-2-yl)prop-2-yn-1-yl]amino}-3-methoxybenzamide]	+ (+ = 0 μM ≤ SC150 < 0.05 μM)
CNC(=O)c1ccc(NCC#Cc2cc3c(NC4CCOCC4)cccc3n2CC(F)(F)F)c(OC)c1 [Compound 1003A]	+ (+ = 0 μM ≤ SC150 < 0.05 μM)
COc1cc(C(=O)NC2CCN(C)CC2)ccc1NCC#Cc1cc2c(NC3CCN(C)CC3)cccc2n1CC(F)(F)F [Compound 498A]	+ (+ = 0 μM ≤ SC150 < 0.05 μM)
CN(C)c1cc(S(C)(=O)=O)ccc1OCC#Cc1cc2c(N[C@H]3CC[C@H](N(C)C)CC3)cccc2n1CC(F)(F)F [Compound 112A, (1R,4R)-N^4-(2-{3-[2-(dimethylamino)-4-methanesulfonyl-phenoxy]prop-1-yn-1-yl}-1-(2,2,2-trifluoroethyl)-1H-indol-4-yl)-N^1,N^1-dimethylcyclohexane-1,4-diamine]	+++ (+++ = 0.1 μM ≤ SC150 < 0.2 μM)
CCOc1cc(S(C)(=O)=O)ccc1NCC#Cc1cc2c(N[C@@H]3CCN(C)C[C@@H]3F)cccc2n1CC(F)(F)F [Compound 843A]	+ (+ = 0 μM ≤ SC150 < 0.05 μM)
COc1cc(S(N)(=O)=O)ccc1NCC#Cc1cc2c(N[C@H]3CCN(C[C@H](COC(C)=O)OC(C)=O)C[C@H]3F)cccc2n1CC(F)(F)F [Compound 888A, (2R)-1-(acetyloxy)-3-[(3R,4S)-3-fluoro-4-[(2-{3-[(2-methoxy-4-sulfamoylphenyl)amino]prop-1-yn-1-yl}-1-(2,2,2-trifluoroethyl)-1H-indol-4-yl)amino]piperidin-1-yl]propan-2-yl acetate]	+ (+ = 0 μM ≤ SC150 < 0.05 μM)
COc1cc(C(=O)NC2CCOCC2)ccc1NCC#Cc1cc2c(NC3CCN(C)CC3)cccc2n1CC(F)(F)F [Compound 500A, 3-methoxy-4-[(3-{4-[(1-methylpiperidin-4-yl)amino]-1-(2,2,2-trifluoroethyl)-1H-indol-2-yl}prop-2-yn-1-yl)amino]-N-(oxan-4-yl)benzamide]	+ (+ = 0 μM ≤ SC150 < 0.05 μM)
COCC(O)CNC(=O)c1ccc(NCC#Cc2cc3c(N[C@H]4CCN(C)C[C@H]4F)cccc3n2CC(F)(F)F)c(OC)c1 (mixture of isomers) [Compound 816A]	+ (+ = 0 μM ≤ SC150 < 0.05 μM)
COc1cc(S(=O)(=O)N(C)C)ccc1NCC#Cc1cc2c(NC3CCN(C(=O)CO)CC3)cccc2n1CC(F)(F)F [Compound 730A]	+ (+ = 0 μM ≤ SC150 < 0.05 μM)
COc1cc(S(N)(=O)=O)ccc1NCC#Cc1cc2c(N[C@H]3CC[C@H](N4CC5CC(C4)O5)CC3)cccc2n1CC(F)(F)F [Compound 400A, 3-methoxy-4-{[3-(4-{[(1R,4R)-4-{6-oxa-3-azabicyclo[3.1.1]heptan-3-yl}cyclohexyl]amino}-1-(2,2,2-trifluoroethyl)-1H-indol-2-yl)prop-2-yn-1-yl]amino}benzene-1-sulfonamide]	+ (+ = 0 μM ≤ SC150 < 0.05 μM)
COc1cc(Cl)ccc1NCC#Cc1cc2c(NC3CCN(C)CC3)cccc2n1CC(F)(F)F [Compound 512A, 2-{3-[(4-chloro-2-methoxyphenyl)amino]prop-1-yn-1-yl}-N-(1-methylpiperidin-4-yl)-1-(2,2,2-trifluoroethyl)-1H-indol-4-amine]	++ (++ = 0.05 μM ≤ SC150 < 0.1 μM)
COc1cc(S(N)(=O)=O)ccc1NCC#Cc1cc2c(NC3CCN(C(=O)C(C)C)CC3)cccc2n1CC(F)(F)F [Compound 753A]	+ (+ = 0 μM ≤ SC150 < 0.05 μM)
CCNC(=O)c1ccc(NCC#Cc2cc3c(N[C@H]4CC[C@H](N5CCOCC5)CC4)cccc3n2CC(F)(F)F)c(OC)c1 [Compound 183A, N-ethyl-3-methoxy-4-{[3-(4-{[(1R,4R)-4-(morpholin-4-yl)cyclohexyl]amino}-1-(2,2,2-trifluoroethyl)-1H-indol-2-yl)prop-2-yn-1-yl]amino}benzamide]	+ (+ = 0 μM ≤ SC150 < 0.05 μM)
COc1cc(C(=O)O)ccc1NCC#Cc1cc2c(N[C@H]3CCN(C(C)C)C[C@H]3F)cccc2n1CC(F)(F)F [Compound 810A, 4-{[3-(4-{[(3R,4S)-3-fluoro-1-(propan-2-yl)piperidin-4-yl]amino}-1-(2,2,2-trifluoroethyl)-1H-indol-2-yl)prop-2-yn-1-yl]amino}-3-methoxybenzoic acid]	+ (+ = 0 μM ≤ SC150 < 0.05 μM)
COc1cc(S(C)(=O)=O)ccc1NCC#Cc1cc2c(NC3CCCN(C)CC3)cccc2n1CC(F)(F)F (centres unmarked) [Compound 988A, 2-{3-[(4-methanesulfonyl-2-methoxyphenyl)amino]prop-1-yn-1-yl}-N-(1-methylazepan-4-yl)-1-(2,2,2-trifluoroethyl)-1H-indol-4-amine]	+ (+ = 0 μM ≤ SC150 < 0.05 μM)
COC(=O)c1ccc(NCC#Cc2cc3c(N[C@@H]4CCN(CCO)C[C@@H]4F)cccc3n2CC(F)(F)F)c(OC)c1 [Compound 899A, methyl 4-{[3-(4-{[(3S,4R)-3-fluoro-1-(2-hydroxyethyl)piperidin-4-yl]amino}-1-(2,2,2-trifluoroethyl)-1H-indol-2-yl)prop-2-yn-1-yl]amino}-3-methoxybenzoate]	+ (+ = 0 μM ≤ SC150 < 0.05 μM)
COc1cc(S(C)(=O)=O)ccc1NCC#Cc1cc2c(N[C@@H]3CCN(C(C)=O)C[C@@H]3F)cccc2n1CC(F)(F)F [Compound 862A, 1-[(3S,4R)-3-fluoro-4-[(2-{3-[(4-methanesulfonyl-2-methoxyphenyl)amino]prop-1-yn-1-yl}-1-(2,2,2-trifluoroethyl)-1H-indol-4-yl)amino]piperidin-1-yl]ethan-1-one]	+ (+ = 0 μM ≤ SC150 < 0.05 μM)
CCN1CC[C@H](Nc2cccc3c2cc(C#CCNc2ccc(C(=O)NC)cc2OC)n3CC(F)(F)F)[C@H](F)C1 [Compound 1075A, 4-{[3-(4-{[(3R,4S)-1-ethyl-3-fluoropiperidin-4-yl]amino}-1-(2,2,2-trifluoroethyl)-1H-indol-2-yl)prop-2-yn-1-yl]amino}-3-methoxy-N-methvlbenzamide]	+ (+ = 0 μM ≤ SC150 < 0.05 μM)
COc1cc(S(C)(=O)=O)ccc1NCC#Cc1cc2c(NC3CCN(C)CC3)cc(F)cc2n1CC(F)(F)F [Compound 475A, 6-fluoro-2-{3-[(4-methanesulfonyl-2-methoxyphenyl)amino]prop-1-yn-1-yl}-N-(1-methylpiperidin-4-yl)-1-(2,2,2-trifluoroethyl)-1H-indol-4-amine]	+++ (+++ = 0.1 μM ≤ SC150 < 0.2 μM)
COc1cc(S(=O)(=O)N(C)CCO)ccc1NCC#Cc1cc2c(NC3CCS(=O)(=O)CC3)cccc2n1CC(F)(F)F [Compound 1038A, 4-[(3-{4-[(1,1-dioxo-1λ^6-thian-4-yl)amino]-1-(2,2,2-trifluoroethyl)-1H-indol-2-yl}prop-2-yn-1-yl)amino]-N-(2-hydroxyethyl)-3-methoxy-N-methylbenzene-1-sulfonamide]	+ (+ = 0 μM ≤ SC150 < 0.05 μM)
